Experimental data published in patent US8546380B2, “Aminodihydrothiazine derivatives” (Shionogi & Co., Ltd., priority 2005, dated 2013).

Test system: not given
Assay: not given
Settings: not given

Row | melting point | SMILES
1 | 180 to 181 °C | CC1(C)CCC(C)(C)c2cc(C3(C)CCSC(N)=N3)ccc21 (stereo not shown) [Compound 533]
2 | 106 to 107 °C | CC(C)(C)c1cccc(Oc2ccc(C3(C)CCSC(N)=N3)cc2)c1 (stereo not shown) [Compound 401]
3 | 193 to 194 °C | CN(C)Cc1ccc(C(=O)Nc2cccc(C3(C)CCSC(N)=N3)c2)nc1 (stereo not shown) [Compound 653]
4 | 141 to 144 °C | CC1(c2ccc(OCCc3ccc(O)cc3)cc2)CCSC(N)=N1 (stereo not shown) [Compound 881]
5 | 118 to 119 °C | CCCCOc1ccc(C2(C)CCSC(N)=N2)cc1 (stereo not shown) [Compound 636]
6 | 166 to 168 °C | CC1(c2cccc(COc3ccc(Cl)cn3)c2)CCSC(N)=N1 (stereo not shown) [Compound 683]
7 | 143 to 145 °C | CC1(c2cccc(CNC(=O)c3ccccc3)c2)CCSC(N)=N1.Cl (stereo not shown)
8 | 234 to 240 °C | CC1(c2ccc(N)cc2)CCSC(N)=N1 (stereo not shown) [Compound 58]
9 | 181 to 192 °C | Cn1nc(C(=O)Nc2cccc(C3(C)CCSC(N)=N3)c2)cc1[N+](=O)[O-] (stereo not shown) [Compound 601]
10 | 272 to 285 °C (dec.) | CC1(c2cccc3c2CC(=O)N3)CCSC(N)=N1.Cl (stereo not shown)
11 | 161 to 165 °C | CC1(c2ccccc2)CC(c2ccccc2)SC(N)=N1.Cl (stereo not shown)
12 | 232 to 234 °C | CC1(c2ccc(C(=O)Nc3ccc(Cl)cc3)cc2)CCSC(N)=N1 (stereo not shown) [Compound 1230]
13 | 117 to 118 °C | CCCC1(c2ccc(OC)cc2)CCSC(N)=N1 (stereo not shown) [Compound 202]
14 | 147 to 150 °C | CCOc1ccc(C2(C)CCSC(N)=N2)cc1 (stereo not shown) [Compound 132]
15 | 264 to 265 °C | CC1(c2ccc3ccccc3c2)CSC(N)=N1.Cl (stereo not shown)
16 | 116 to 117 °C | CC1(c2ccc(Cl)cc2)CSC(N)=N1 (stereo not shown) [Compound 24]
17 | 192 to 193 °C | CC(=O)Nc1ccc(C2(C)CCSC(N)=N2)cc1 (stereo not shown) [Compound 1161]
18 | 201 to 203 °C | CN(C)C(=O)c1ccc(C2(C)CCSC(N)=N2)cc1 (stereo not shown) [Compound 644]
19 | 84 to 85 °C | CNC1=NC(C)(c2ccc(OC)cc2)CCS1 (stereo not shown) [Compound 1064]
20 | 82 to 83 °C | COc1cccc(C2(C)CCSC(N)=N2)c1 (stereo not shown) [Compound 851]

Second part, the compound before the results:

Row | SMILES | melting point
21 | CC1(c2ccccc2)CCCSC(N)=N1.Cl (stereo not shown) | 223 to 225 °C
22 | COc1ccc(C2(C)CCSC(NC(=N)N)=N2)cc1F.Cl (stereo not shown) | 167 to 174 °C
23 | CC1(c2ccc3c(c2)OCCO3)CCNC(N)=N1.Cl (stereo not shown) | 198 to 201 °C
24 | COc1ccc(SCCOc2cccc(C3(C)CCSC(N)=N3)c2)cc1 (stereo not shown) [Compound 916] | 131 to 132 °C
25 | CC1(c2ccc3c(c2)CCO3)CCS/C(=N/S(C)(=O)=O)N1 (stereo not shown) [Compound 308] | 167 to 168 °C
26 | NC1=NC2(CCCc3ccccc32)CCS1 (stereo not shown) [Compound 445] | 92 to 93 °C
27 | CC1(c2cc(NC(=O)c3ncc(Cl)cc3Cl)ccc2F)CCSC(N)=N1 (stereo not shown) [Compound 827] | 134 to 137 °C
28 | COc1ccc(C2(C)CCCN=C(NC(C)(C)C)S2)cc1 (stereo not shown) [Compound 354] | 102 to 103 °C
29 | CC1(c2ccc(-c3ccccc3)cc2)CCSC(N)=N1 (stereo not shown) [Compound 1181] | 194 to 195 °C
30 | COC(=O)c1cccc(C2(C)CCSC(N)=N2)c1 (stereo not shown) [Compound 1153] | 156 to 159 °C
31 | CC1(c2cccc(O)c2)CCSC(N)=N1.Cl (stereo not shown) | 238 to 239 °C
32 | CC1(c2ccc(OCc3ccccc3)cc2)CCSC(N)=N1 (stereo not shown) [Compound 892] | 251 °C (dec.)
33 | CN1C(=N)SCCC1(C)c1ccc2ccccc2c1.Cl (stereo not shown) | 266 to 268 °C
34 | CC1(c2cc(F)cc(NC(=O)c3cnccn3)c2)CCSC(N)=N1 (stereo not shown) [Compound 244] | 222 to 224 °C
35 | CC1(c2cccc(C(=O)Nc3ccc(Cl)cc3)c2)CCSC(N)=N1 (stereo not shown) [Compound 700] | 177 to 178 °C
36 | COC(=O)c1ccc(C2(C)CCSC(N)=N2)cc1 (stereo not shown) [Compound 1119] | 153 to 157 °C
37 | Cc1ccc(Oc2ccc(C3(C)CCSC(N)=N3)cc2)cc1 (stereo not shown) [Compound 1067] | 162 to 165 °C

Row | SMILES | melting point
38 | CC(=O)/N=C1\NC(C)(c2ccc(F)cc2)CCS1 (stereo not shown) [Compound 767] | 98 to 100 °C
39 | CC1(c2cccc(CN3CCOCC3)c2)CCSC(N)=N1 (stereo not shown) [Compound 649] | 161 to 162 °C
40 | CC(C)c1ccc2cc(C3(C)CCSC(N)=N3)ccc2c1 (stereo not shown) [Compound 811] | 138 to 139 °C
41 | Cc1cccc(Oc2ccc(C3(C)CCSC(N)=N3)cc2)c1 (stereo not shown) [Compound 1110] | 109 to 110 °C
42 | CC1(c2ccc(C(F)(F)F)cc2)CCSC(N)=N1 (stereo not shown) [Compound 573] | 112 to 114 °C
43 | CC1(c2ccccc2)CCN=C(N)S1.Cl (stereo not shown) | 201 to 204 °C
44 | CC1(c2cccc(NC(=O)c3cnc4ccccc4n3)c2)CCSC(N)=N1 (stereo not shown) [Compound 1115] | 167 to 170 °C
45 | CNC(=O)c1ccc(C2(C)CCSC(N)=N2)cc1 (stereo not shown) [Compound 1120] | 213 to 214 °C
46 | CC1(c2ccccc2)CCN=C(N)O1.Cl (stereo not shown) | 205 to 206 °C
47 | COc1ccc(C2(C)CCSC(=N)N2C)cc1.Cl (stereo not shown) | 221 to 224 °C
48 | Cc1ccc(C(=O)NCc2cccc(C3(C)CCSC(N)=N3)c2)cc1.Cl (stereo not shown) | 153 to 155 °C
49 | COCc1cc(NC(=O)c2ccc(Cl)cn2)cc(C2(C)CCSC(N)=N2)c1.Cl (stereo not shown) [Compound 284] | 181.5 °C
50 | CC1(c2csc(C(=O)Nc3ccccc3)c2)CCSC(N)=N1 (stereo not shown) [Compound 235] | 196 to 200 °C
51 | NC1=NC2(CCS1)CCc1ccccc12 (stereo not shown) [Compound 525] | 105 to 106 °C
52 | CCN(C(=O)c1ccco1)c1cccc(C2(C)CCSC(N)=N2)c1.Cl (stereo not shown) | 262 to 267 °C
53 | COc1ccc(C2(C)CC(C)SC(N)=N2)cc1 (stereo not shown) [Compound 86] | 141 to 142 °C
54 | CC1(c2ccc(OC(F)(F)F)cc2)CCSC(N)=N1 (stereo not shown) [Compound 968] | 107 to 109 °C

Target: recombinant human BACE-1 protein (Homo sapiens (Human), UniProt P56817)
Assay: Measurement of Inhibition of β-Secretase Activity
Type: biochemical
Settings: fluorescence-quenched peptide substrate 18 nM, BACE-1 7.4 nM, 3 h at 30° C., pH5.0; read-out: IC50 value
In short: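 Recombinant human BACE-1 incubated with compound and Eu-cryptate-labelled biotinylated peptide substrate 3 h at 30° C in 50 mM sodium acetate pH 5.0, 0.008% Triton X-100. Streptavidin-XL665 in KF-containing phosphate buffer pH 7.0 then added, 1 h at 30° C, for time-resolved FRET read-out.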

Sequence of recombinant human BACE-1 protein (P56817 46-501): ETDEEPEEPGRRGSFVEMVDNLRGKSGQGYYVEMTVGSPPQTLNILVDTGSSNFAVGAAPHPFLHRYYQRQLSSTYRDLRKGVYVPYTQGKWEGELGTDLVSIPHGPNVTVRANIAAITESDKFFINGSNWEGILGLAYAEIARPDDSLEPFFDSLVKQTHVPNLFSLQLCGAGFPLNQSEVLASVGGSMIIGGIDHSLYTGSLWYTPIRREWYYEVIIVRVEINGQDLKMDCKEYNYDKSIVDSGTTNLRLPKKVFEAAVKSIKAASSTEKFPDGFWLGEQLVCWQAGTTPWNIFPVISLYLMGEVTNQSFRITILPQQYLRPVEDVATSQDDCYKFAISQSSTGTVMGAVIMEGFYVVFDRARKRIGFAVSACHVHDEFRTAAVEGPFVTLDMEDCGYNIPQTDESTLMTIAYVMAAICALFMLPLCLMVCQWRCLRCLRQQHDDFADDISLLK

Row | IC50 | SMILES
55 | < 100 µM | COc1ccc(C(=O)Nc2cccc(C3(C)CCSC(N)=N3)c2)nc1 (stereo not shown) [Compound 781]
56 | < 100 µM | Cn1nc(C(=O)Nc2cccc(C3(C)CCSC(N)=N3)c2)cc1CO (stereo not shown) [Compound 358]
57 | < 100 µM | CC1=NC(C)(c2cccc(CCC(=O)Nc3ccccc3)c2)CCS1 (stereo not shown) [Compound 732]

Second part, the compound before the results:

Row | SMILES | IC50
58 | CC1(c2cc(F)cc(NC(=O)c3ncccc3C(N)=O)c2)CCSC(N)=N1 (stereo not shown) [Compound 947] | < 100 µM
59 | CC1(c2cccc(NC(=O)c3ccc(-c4ccccc4)cc3)c2)CCSC(N)=N1 (stereo not shown) [Compound 761] | < 100 µM
60 | CC1(c2cccc(/C=N/Oc3ccccc3)c2)CCSC(N)=N1 (stereo not shown) [Compound 383] | < 100 µM
61 | CC1(c2cccc(NC(=O)c3cnc(N=[N+]=N)cn3)c2)CCSC(N)=N1 (stereo not shown) [Compound 1266] | < 100 µM
62 | CC1(c2cccc(NC(=O)c3ccc([N+](=O)[O-])cc3)c2)CCSC(N)=N1 (stereo not shown) [Compound 209] | < 100 µM
63 | CC1(c2cc(NC(=S)c3ccc(Br)cc3)cc(S(C)(=O)=O)c2)CCSC(N)=N1 (stereo not shown) [Compound 71] | < 100 µM
64 | Cc1cc(C(=O)Nc2cccc(C3(C)CCSC(N)=N3)c2)ccc1Cl (stereo not shown) [Compound 172] | < 100 µM
65 | CC1(c2cccc(NC(=O)c3ccc(F)nc3)c2)CCSC(N)=N1 (stereo not shown) [Compound 850] | < 100 µM
66 | COc1ccc2nc(NC(=O)c3cccc(C4(C)CCSC(N)=N4)c3)sc2c1 (stereo not shown) [Compound 117] | < 100 µM
67 | CC1(c2cccc(NC(=O)c3cnc(N4CCCC4)cn3)c2)CCSC(N)=N1 (stereo not shown) [Compound 1271] | < 100 µM
